Laboratory results published in ChEMBL document CHEMBL1140238, “Synthesis of selective SRPK-1 inhibitors: novel tricyclic quinoxaline derivatives” (Bioorg Med Chem Lett, 2005).

Biological target: Hepatocyte growth factor receptor (Homo sapiens) (UniProt P08581)
Test: In vitro percent inhibition of Met proto-oncogene tyrosine kinase at 10 uM concentration of compound dissolved in 100% DMSO using 5''-[gamma-33P]-triphosphate
Conditions: not given

Row | inhibition [%] | Structure (SMILES)
1 | 34 | c1csc(-c2nc3cc4c(cc3nc2-c2cccs2)OCO4)c1
2 | 32 | O=C(O)CCc1ccc(-c2nc3cc4ccccc4cc3nc2-c2ccc(CCC(=O)O)s2)s1

System: not listed separately
Test: In vitro percent inhibition of Ribosomal S6 kinase 1 at 10 uM concentration of compound dissolved in 100% DMSO using 5''-[gamma-33P]-triphosphate
Conditions: not given

Row | inhibition [%] | Structure (SMILES)
3 | 1 | c1csc(-c2nc3cc4c(cc3nc2-c2cccs2)OCO4)c1
4 | 30 | O=C(O)CCc1ccc(-c2nc3cc4ccccc4cc3nc2-c2ccc(CCC(=O)O)s2)s1

Biological target: Rho-associated protein kinase 2 (Homo sapiens) (UniProt O75116)
Test: In vitro percent inhibition of Protein kinase ROCK2 at 10 uM concentration of compound dissolved in 100% DMSO using 5''-[gamma-33P]-triphosphate
Conditions: not given

Row | inhibition [%] | Structure (SMILES)
5 | 31 | c1csc(-c2nc3cc4c(cc3nc2-c2cccs2)OCO4)c1
6 | 18 | O=C(O)CCc1ccc(-c2nc3cc4ccccc4cc3nc2-c2ccc(CCC(=O)O)s2)s1

Biological target: Glycogen synthase kinase-3 beta (Homo sapiens) (UniProt P49841)
Sequence (P49841 whole entry, looked up): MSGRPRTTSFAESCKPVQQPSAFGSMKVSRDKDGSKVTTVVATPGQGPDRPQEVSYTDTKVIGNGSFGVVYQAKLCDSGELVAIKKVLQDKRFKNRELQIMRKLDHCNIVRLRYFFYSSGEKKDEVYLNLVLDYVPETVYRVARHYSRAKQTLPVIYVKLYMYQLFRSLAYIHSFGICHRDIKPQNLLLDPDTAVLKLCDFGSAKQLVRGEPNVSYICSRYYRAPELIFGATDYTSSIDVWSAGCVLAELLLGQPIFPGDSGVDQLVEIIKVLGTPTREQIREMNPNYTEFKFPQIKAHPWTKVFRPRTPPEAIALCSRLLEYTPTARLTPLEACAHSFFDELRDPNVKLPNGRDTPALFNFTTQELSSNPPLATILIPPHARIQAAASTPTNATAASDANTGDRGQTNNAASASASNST
Test: In vitro percent inhibition of Glycogen synthase kinase 3 beta at 10 uM concentration of compound dissolved in 100% DMSO using 5''-[gamma-33P]-triphosphate
Conditions: not given

Row | inhibition [%] | Structure (SMILES)
7 | -1 | c1csc(-c2nc3cc4c(cc3nc2-c2cccs2)OCO4)c1
8 | 23 | O=C(O)CCc1ccc(-c2nc3cc4ccccc4cc3nc2-c2ccc(CCC(=O)O)s2)s1

System: not listed separately
Test: In vitro percent inhibition of Cyclin-dependent kinase 2-cyclin A at 10 uM concentration of compound dissolved in 100% DMSO using 5''-[gamma-33P]-triphosphate
Conditions: not given

Row | inhibition [%] | Structure (SMILES)
9 | -4 | c1csc(-c2nc3cc4c(cc3nc2-c2cccs2)OCO4)c1
10 | -4 | O=C(O)CCc1ccc(-c2nc3cc4ccccc4cc3nc2-c2ccc(CCC(=O)O)s2)s1

Biological target: RAC-alpha serine/threonine-protein kinase (Homo sapiens) (UniProt P31749)
Test: In vitro percent inhibition of Protein kinase B, alpha at 10 uM concentration of compound dissolved in 100% DMSO using 5''-[gamma-33P]-triphosphate
Conditions: not given

Row | inhibition [%] | Structure (SMILES)
11 | -6 | c1csc(-c2nc3cc4c(cc3nc2-c2cccs2)OCO4)c1
12 | 0 | O=C(O)CCc1ccc(-c2nc3cc4ccccc4cc3nc2-c2ccc(CCC(=O)O)s2)s1

Biological target: Epidermal growth factor receptor (Homo sapiens) (UniProt P00533)
Sequence (P00533 whole entry): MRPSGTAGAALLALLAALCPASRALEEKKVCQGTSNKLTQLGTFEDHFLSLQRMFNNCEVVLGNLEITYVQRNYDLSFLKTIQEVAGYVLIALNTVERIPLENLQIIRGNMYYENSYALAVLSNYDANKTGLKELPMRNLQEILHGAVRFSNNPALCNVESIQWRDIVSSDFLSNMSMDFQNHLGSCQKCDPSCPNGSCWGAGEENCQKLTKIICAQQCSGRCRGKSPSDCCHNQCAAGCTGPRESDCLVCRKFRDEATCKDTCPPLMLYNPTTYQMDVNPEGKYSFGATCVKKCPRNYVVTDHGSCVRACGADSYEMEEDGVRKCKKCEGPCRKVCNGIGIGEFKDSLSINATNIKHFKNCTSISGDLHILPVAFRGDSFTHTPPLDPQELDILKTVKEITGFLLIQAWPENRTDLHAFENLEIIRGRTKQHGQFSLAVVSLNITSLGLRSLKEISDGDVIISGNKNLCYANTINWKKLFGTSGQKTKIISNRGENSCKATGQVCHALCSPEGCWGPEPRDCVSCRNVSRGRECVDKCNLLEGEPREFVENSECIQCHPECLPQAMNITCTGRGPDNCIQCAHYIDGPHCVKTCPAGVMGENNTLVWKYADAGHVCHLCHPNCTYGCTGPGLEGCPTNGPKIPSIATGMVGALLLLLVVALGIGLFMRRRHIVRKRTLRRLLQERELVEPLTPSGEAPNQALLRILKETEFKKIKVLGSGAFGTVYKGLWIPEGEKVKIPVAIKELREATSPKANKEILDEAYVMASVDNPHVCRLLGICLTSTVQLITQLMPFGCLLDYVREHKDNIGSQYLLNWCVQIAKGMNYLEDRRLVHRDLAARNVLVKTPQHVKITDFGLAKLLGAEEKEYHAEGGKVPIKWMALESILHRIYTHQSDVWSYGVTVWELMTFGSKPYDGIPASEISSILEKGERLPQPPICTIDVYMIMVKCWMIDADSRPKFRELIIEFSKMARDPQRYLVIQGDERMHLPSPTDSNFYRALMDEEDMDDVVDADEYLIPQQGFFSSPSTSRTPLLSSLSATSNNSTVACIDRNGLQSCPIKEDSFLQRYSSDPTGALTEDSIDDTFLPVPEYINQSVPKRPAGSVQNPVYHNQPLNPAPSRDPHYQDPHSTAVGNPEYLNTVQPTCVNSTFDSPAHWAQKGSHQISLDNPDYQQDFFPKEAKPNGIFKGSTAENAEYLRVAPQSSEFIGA
Conditions: 10 uM

Row | inhibition [%] | Structure (SMILES)
13 | 35 | c1csc(-c2nc3cc4c(cc3nc2-c2cccs2)OCO4)c1
14 | 40 | O=C(O)CCc1ccc(-c2nc3cc4ccccc4cc3nc2-c2ccc(CCC(=O)O)s2)s1

Biological target: Casein kinase I isoform alpha (Homo sapiens) (UniProt P48729)
Test: In vitro percent inhibition of Casein kinase 1 alpha at 10 uM concentration of compound dissolved in 100% DMSO using 5''-[gamma-33P]-triphosphate
Conditions: not given

Row | inhibition [%] | Structure (SMILES)
15 | 9 | c1csc(-c2nc3cc4c(cc3nc2-c2cccs2)OCO4)c1
16 | 40 | O=C(O)CCc1ccc(-c2nc3cc4ccccc4cc3nc2-c2ccc(CCC(=O)O)s2)s1

Biological target: Platelet-derived growth factor receptor beta (Homo sapiens) (UniProt P09619)
Sequence (P09619 whole entry): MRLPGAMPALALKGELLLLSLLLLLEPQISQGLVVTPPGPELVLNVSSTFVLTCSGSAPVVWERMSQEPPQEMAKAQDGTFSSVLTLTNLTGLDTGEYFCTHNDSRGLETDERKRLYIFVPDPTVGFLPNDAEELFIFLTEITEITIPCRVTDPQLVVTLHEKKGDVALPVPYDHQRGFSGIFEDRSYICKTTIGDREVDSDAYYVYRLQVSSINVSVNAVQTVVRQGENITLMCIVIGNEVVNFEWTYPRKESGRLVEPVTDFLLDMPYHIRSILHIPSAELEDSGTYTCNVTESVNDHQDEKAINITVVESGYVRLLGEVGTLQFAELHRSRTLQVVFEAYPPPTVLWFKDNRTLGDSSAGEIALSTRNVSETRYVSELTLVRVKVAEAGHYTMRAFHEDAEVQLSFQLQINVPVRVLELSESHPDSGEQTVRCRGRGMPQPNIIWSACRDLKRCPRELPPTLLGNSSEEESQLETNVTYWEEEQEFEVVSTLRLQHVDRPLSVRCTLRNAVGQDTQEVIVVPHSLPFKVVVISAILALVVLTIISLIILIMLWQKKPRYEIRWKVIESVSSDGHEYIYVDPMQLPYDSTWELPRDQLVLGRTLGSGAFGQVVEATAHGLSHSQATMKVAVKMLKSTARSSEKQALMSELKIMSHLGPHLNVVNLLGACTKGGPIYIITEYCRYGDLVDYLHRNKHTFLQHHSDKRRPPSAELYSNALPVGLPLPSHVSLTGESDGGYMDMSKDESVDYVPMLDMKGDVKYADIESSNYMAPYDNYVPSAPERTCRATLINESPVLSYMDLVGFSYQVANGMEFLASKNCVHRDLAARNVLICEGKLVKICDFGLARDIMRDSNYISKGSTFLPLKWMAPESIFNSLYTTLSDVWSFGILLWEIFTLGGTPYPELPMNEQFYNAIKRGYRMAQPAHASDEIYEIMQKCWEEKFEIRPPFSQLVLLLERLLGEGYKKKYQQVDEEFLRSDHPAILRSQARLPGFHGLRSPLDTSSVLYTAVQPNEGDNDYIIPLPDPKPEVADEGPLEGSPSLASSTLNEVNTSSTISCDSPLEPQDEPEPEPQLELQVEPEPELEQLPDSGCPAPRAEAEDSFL
Test: In vitro percent inhibition of Platelet-derived growth factor receptor, beta polypeptide at 10 uM concentration of compound dissolved in 100% DMSO using 5''-[gamma-33P]-triphosphate
Conditions: not given

Row | inhibition [%] | Structure (SMILES)
17 | 54 | c1csc(-c2nc3cc4c(cc3nc2-c2cccs2)OCO4)c1
18 | 49 | O=C(O)CCc1ccc(-c2nc3cc4ccccc4cc3nc2-c2ccc(CCC(=O)O)s2)s1

Biological target: Insulin receptor (Homo sapiens) (UniProt P06213)
Test: In vitro percent inhibition of Insulin receptor at 10 uM concentration of compound dissolved in 100% DMSO using 5''-[gamma-33P]-triphosphate
Conditions: not given

Row | inhibition [%] | Structure (SMILES)
19 | 29 | c1csc(-c2nc3cc4c(cc3nc2-c2cccs2)OCO4)c1
20 | -5 | O=C(O)CCc1ccc(-c2nc3cc4ccccc4cc3nc2-c2ccc(CCC(=O)O)s2)s1

Biological target: Mitogen-activated protein kinase 3 (Homo sapiens) (UniProt P27361)
Sequence (P27361 whole entry): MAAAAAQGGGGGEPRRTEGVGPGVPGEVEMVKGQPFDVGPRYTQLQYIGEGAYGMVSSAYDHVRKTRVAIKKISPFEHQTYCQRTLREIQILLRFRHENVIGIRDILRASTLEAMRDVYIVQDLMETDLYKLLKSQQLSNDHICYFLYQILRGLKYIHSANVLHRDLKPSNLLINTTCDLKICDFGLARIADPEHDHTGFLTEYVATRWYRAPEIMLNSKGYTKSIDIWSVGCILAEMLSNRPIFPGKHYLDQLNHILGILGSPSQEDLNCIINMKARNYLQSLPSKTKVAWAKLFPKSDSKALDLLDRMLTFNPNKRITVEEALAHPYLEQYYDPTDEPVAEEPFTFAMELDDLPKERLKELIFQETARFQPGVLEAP
Test: In vitro percent inhibition of Mitogen-activated protein kinase 3 at 10 uM concentration of compound dissolved in 100% DMSO using 5''-[gamma-33P]-triphosphate
Conditions: not given

Row | inhibition [%] | Structure (SMILES)
21 | 14 | c1csc(-c2nc3cc4c(cc3nc2-c2cccs2)OCO4)c1
22 | 11 | O=C(O)CCc1ccc(-c2nc3cc4ccccc4cc3nc2-c2ccc(CCC(=O)O)s2)s1

Biological target: T1, Inhibitor of nuclear factor kappa-B kinase subunit beta (Homo sapiens) (UniProt O14920)
T1 sequence (whole entry): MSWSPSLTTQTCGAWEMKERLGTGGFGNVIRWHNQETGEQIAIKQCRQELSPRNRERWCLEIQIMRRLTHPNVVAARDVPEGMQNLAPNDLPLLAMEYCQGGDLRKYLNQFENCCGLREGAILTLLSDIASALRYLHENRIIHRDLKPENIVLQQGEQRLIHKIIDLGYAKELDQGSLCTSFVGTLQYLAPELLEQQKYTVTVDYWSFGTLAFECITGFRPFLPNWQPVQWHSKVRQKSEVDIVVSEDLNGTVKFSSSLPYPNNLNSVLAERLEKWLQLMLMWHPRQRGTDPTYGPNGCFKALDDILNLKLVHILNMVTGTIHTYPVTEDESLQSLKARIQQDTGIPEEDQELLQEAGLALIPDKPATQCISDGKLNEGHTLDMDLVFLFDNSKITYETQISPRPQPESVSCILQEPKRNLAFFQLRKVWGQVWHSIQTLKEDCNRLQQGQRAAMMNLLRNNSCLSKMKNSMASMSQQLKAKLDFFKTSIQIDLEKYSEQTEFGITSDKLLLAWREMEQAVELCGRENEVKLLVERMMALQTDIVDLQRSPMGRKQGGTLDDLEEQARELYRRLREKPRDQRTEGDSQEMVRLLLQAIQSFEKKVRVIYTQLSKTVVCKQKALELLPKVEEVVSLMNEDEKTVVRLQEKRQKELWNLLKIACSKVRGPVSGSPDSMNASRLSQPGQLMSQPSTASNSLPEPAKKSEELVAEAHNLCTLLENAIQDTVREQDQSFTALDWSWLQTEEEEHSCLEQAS
Test: In vitro percent inhibition of I-kappa-B-kinase beta at 10 uM concentration of compound dissolved in 100% DMSO using 5''-[gamma-33P]-triphosphate
Conditions: not given

Row | inhibition [%] | Structure (SMILES)
23 | 28 | c1csc(-c2nc3cc4c(cc3nc2-c2cccs2)OCO4)c1
24 | 54 | O=C(O)CCc1ccc(-c2nc3cc4ccccc4cc3nc2-c2ccc(CCC(=O)O)s2)s1

Biological target: RAF proto-oncogene serine/threonine-protein kinase (Homo sapiens) (UniProt P04049)
Test: In vitro percent inhibition of RAF proto-oncogene serine/threonine-protein kinase at 10 uM concentration of compound dissolved in 100% DMSO using 5''-[gamma-33P]-triphosphate
Conditions: not given

Row | inhibition [%] | Structure (SMILES)
25 | 21 | c1csc(-c2nc3cc4c(cc3nc2-c2cccs2)OCO4)c1
26 | 18 | O=C(O)CCc1ccc(-c2nc3cc4ccccc4cc3nc2-c2ccc(CCC(=O)O)s2)s1

Biological target: Tyrosine-protein kinase Lck (Homo sapiens) (UniProt P06239)
Test: In vitro percent inhibition of p56 Lck tyrosine kinase at 10 uM concentration of compound dissolved in 100% DMSO using 5''-[gamma-33P]-triphosphate
Conditions: not given

Row | inhibition [%] | Structure (SMILES)
27 | 41 | c1csc(-c2nc3cc4c(cc3nc2-c2cccs2)OCO4)c1
28 | -3 | O=C(O)CCc1ccc(-c2nc3cc4ccccc4cc3nc2-c2ccc(CCC(=O)O)s2)s1

System: not listed separately
Test: Partition coefficient (logP)
Format: physicochemical
Conditions: octanol/water

Row | logP | Structure (SMILES)
29 | 4.8 | c1csc(-c2nc3cc4c(cc3nc2-c2cccs2)OCO4)c1
30 | 4.28 | O=C(O)CCc1ccc(-c2nc3cc4ccccc4cc3nc2-c2ccc(CCC(=O)O)s2)s1

Biological target: Mitogen-activated protein kinase 8 (Homo sapiens) (UniProt P45983)
Sequence (P45983 whole entry): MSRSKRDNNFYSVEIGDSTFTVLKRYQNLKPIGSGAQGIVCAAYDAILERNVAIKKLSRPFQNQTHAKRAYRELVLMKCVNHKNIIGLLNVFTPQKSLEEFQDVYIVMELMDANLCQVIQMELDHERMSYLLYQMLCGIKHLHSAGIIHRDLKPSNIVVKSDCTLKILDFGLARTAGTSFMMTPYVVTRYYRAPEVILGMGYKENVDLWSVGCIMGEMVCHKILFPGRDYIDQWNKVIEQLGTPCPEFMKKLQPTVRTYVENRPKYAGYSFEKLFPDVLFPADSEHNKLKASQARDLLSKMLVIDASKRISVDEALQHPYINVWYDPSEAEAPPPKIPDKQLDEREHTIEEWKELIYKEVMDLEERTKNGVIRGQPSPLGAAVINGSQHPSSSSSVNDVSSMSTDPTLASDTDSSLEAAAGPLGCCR
Test: In vitro percent inhibition of c-Jun N-terminal kinase 1-alpha 1 at 10 uM concentration of compound dissolved in 100% DMSO using 5''-[gamma-33P]-triphosphate
Conditions: not given

Row | inhibition [%] | Structure (SMILES)
31 | 18 | c1csc(-c2nc3cc4c(cc3nc2-c2cccs2)OCO4)c1
32 | -5 | O=C(O)CCc1ccc(-c2nc3cc4ccccc4cc3nc2-c2ccc(CCC(=O)O)s2)s1

Biological target: Mast/stem cell growth factor receptor Kit (Homo sapiens) (UniProt P10721)
Sequence (P10721 whole entry): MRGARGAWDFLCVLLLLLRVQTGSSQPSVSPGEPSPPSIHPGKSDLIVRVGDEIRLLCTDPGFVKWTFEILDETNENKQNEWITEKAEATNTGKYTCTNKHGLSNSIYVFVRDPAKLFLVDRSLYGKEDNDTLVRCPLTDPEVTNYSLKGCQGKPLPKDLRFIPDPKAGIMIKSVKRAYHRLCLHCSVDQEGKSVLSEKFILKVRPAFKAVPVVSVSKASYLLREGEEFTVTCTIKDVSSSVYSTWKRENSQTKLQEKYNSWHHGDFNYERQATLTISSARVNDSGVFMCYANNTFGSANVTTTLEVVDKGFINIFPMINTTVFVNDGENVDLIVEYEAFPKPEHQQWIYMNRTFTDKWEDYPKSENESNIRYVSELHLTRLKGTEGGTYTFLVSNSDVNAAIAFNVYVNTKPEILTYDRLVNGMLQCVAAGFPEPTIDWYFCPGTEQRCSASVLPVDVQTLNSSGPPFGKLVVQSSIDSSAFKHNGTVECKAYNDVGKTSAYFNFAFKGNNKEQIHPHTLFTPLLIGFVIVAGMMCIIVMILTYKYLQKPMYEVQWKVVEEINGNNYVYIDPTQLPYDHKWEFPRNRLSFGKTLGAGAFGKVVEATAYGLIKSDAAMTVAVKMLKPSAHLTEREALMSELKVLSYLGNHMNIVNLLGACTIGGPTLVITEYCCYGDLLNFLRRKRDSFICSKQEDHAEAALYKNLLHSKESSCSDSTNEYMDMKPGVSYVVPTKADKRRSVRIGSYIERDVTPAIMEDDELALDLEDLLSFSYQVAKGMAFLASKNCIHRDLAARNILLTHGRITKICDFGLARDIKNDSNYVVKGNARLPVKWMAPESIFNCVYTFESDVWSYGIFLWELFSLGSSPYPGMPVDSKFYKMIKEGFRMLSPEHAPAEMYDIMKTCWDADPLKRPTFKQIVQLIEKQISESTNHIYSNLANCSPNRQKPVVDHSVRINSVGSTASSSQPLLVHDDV
Test: In vitro percent inhibition of v-kit Hardy-Zuckerman 4 feline sarcoma viral oncogene homolog at 10 uM concentration of compound dissolved in 100% DMSO using 5''-[gamma-33P]-triphosphate
Conditions: not given

Row | inhibition [%] | Structure (SMILES)
33 | 38 | c1csc(-c2nc3cc4c(cc3nc2-c2cccs2)OCO4)c1
34 | 52 | O=C(O)CCc1ccc(-c2nc3cc4ccccc4cc3nc2-c2ccc(CCC(=O)O)s2)s1

Biological target: Ribosomal protein S6 kinase (P70S6K) (Homo sapiens) (UniProt Q9UBS0+P23443)
Test: In vitro percent inhibition of Ribosomal protein S6 kinase at 10 uM concentration of compound dissolved in 100% DMSO using 5''-[gamma-33P]-triphosphate
Format: protein-complex assay
Conditions: not given

Row | inhibition [%] | Structure (SMILES)
35 | 6 | c1csc(-c2nc3cc4c(cc3nc2-c2cccs2)OCO4)c1
36 | 29 | O=C(O)CCc1ccc(-c2nc3cc4ccccc4cc3nc2-c2ccc(CCC(=O)O)s2)s1

Biological target: Proto-oncogene tyrosine-protein kinase Src (Homo sapiens) (UniProt P12931)
Sequence (P12931 2-536 limits assumed): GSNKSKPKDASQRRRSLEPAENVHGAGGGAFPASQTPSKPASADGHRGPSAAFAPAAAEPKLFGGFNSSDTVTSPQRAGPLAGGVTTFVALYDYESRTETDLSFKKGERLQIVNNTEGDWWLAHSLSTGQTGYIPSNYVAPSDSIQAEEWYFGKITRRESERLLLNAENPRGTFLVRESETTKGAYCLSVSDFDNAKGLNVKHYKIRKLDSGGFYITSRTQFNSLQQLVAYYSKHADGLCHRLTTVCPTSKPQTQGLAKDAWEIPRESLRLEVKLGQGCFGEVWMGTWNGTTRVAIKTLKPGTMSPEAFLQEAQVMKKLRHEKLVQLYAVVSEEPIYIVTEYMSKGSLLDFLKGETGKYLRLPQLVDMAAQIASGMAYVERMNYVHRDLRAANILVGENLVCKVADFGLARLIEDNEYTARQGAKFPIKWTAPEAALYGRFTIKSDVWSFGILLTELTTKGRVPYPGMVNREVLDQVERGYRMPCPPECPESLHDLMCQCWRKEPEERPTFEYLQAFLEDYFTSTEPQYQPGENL
Test: In vitro percent inhibition of c-Src tyrosine kinase at 10 uM concentration of compound dissolved in 100% DMSO using 5''-[gamma-33P]-triphosphate
Conditions: not given

Row | inhibition [%] | Structure (SMILES)
37 | 71 | c1csc(-c2nc3cc4c(cc3nc2-c2cccs2)OCO4)c1
38 | 70 | O=C(O)CCc1ccc(-c2nc3cc4ccccc4cc3nc2-c2ccc(CCC(=O)O)s2)s1

Biological target: T2, Tyrosine-protein kinase transforming protein Abl (Abelson murine leukemia virus) (UniProt P00521)
T2 sequence (whole entry): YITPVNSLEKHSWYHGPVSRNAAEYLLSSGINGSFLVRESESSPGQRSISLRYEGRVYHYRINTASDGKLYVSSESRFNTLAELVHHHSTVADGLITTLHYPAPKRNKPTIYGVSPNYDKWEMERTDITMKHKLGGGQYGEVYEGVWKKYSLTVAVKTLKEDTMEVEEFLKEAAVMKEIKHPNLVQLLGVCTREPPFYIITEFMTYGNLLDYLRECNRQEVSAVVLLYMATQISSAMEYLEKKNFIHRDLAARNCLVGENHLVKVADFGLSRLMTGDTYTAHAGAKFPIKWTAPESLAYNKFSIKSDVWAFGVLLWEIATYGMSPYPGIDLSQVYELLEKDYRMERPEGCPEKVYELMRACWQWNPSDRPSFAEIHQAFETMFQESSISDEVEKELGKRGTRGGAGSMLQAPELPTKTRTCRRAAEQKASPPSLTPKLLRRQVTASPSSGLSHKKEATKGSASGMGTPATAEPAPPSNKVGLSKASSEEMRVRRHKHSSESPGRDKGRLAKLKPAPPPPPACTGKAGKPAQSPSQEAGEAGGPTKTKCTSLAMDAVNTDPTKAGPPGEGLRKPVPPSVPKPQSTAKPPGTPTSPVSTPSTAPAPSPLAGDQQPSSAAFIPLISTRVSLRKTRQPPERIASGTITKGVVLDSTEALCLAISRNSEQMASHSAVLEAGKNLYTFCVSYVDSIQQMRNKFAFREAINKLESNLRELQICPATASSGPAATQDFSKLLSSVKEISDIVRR
Test: In vitro percent inhibition of v-Abl tyrosine kinase at 10 uM concentration of compound dissolved in 100% DMSO using 5''-[gamma-33P]-triphosphate
Conditions: not given

Row | inhibition [%] | Structure (SMILES)
39 | 14 | c1csc(-c2nc3cc4c(cc3nc2-c2cccs2)OCO4)c1
40 | 3 | O=C(O)CCc1ccc(-c2nc3cc4ccccc4cc3nc2-c2ccc(CCC(=O)O)s2)s1
